Common to all, as to experiment: NCI-60 cell line screen, 48 h
Assay [1] deals with KM12.
The subject of assay [2] is SK-OV-3.
In assay [3] the test system is OVCAR-5.
Assay [4] deals with MDA-N.
The test system of assay [5] is NCI-H226.
Assay [6] deals with EKVX.
The test system of assay [7] is MDA-MB-435.
The test system of assay [8] is MDA-MB-231.
Assay [9] has as its system SK-MEL-28.
For assay [10], the system named is SF-539.
In assay [11] the test system is K562.
Assay [12] relates to T47D.
The subject of assay [13] is SK-MEL-5.
Assay [14] has as its system U-251.
Assay [15] deals with HOP-92.
For assay [16], the system named is SF-268.
Assay [17] has as its system LOX IMVI.
The subject of assay [18] is BT-549.
Assay [19] relates to Malme-3M.
The test system of assay [20] is MCF7.

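These data come from cells grown in 96-well plates and exposed to compound for 48 hours at five concentrations. The concentration for 50% growth inhibition is given as GI50.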 Active and inactive are the calls of the source. Rule as the data show it: active = GI50 up to about 1.1 µM and inactive = higher.

For the compound `c1cc2c(cc1C(N1CCNCC1)N1CCNCC1)OCO2`, the GI50 in assay [1], in [2], in [3], in assay [4], in assay [5] and in [6] was > 100 µM (inactive) each time. In addition, the GI50 was > 100 µM (inactive) in assay [7]; > 100 µM (inactive) in assay [8]; > 100 µM (inactive) in [9]; > 100 µM (inactive) in [10]; 2.42 µM (inactive) in assay [11]; > 100 µM (inactive) in assay [12]. The GI50 in assay [13], in [14], in assay [15], in assay [16], in assay [17] and in assay [18] was > 100 µM (inactive) in each case. Also, the GI50 in assay [19] and in assay [20] was > 100 µM (inactive) in each case.
Consider `Cc1ccc(S(=O)(=O)N2CCC[C@@H]2C(=O)O[C@@H]2CCC3CC=CC32)cc1` (some centres not stated), for which the GI50 in [1] was 28.3 µM (inactive); in assay [2], 22.2 µM (inactive); in [3] it was 45.8 µM (inactive); in assay [4], 29.2 µM (inactive); in assay [5], 19.9 µM (inactive); in [6], 41.6 µM (inactive). The GI50 in assay [7] was 35.1 µM (inactive); in assay [8], 45.9 µM (inactive); in [9], 47.9 µM (inactive); in [10] it was 44.5 µM (inactive); in assay [11], 14 µM (inactive); in [12] it was 20.9 µM (inactive). Besides, the GI50 in assay [13] was 14.8 µM (inactive); in assay [14] it was 34.3 µM (inactive); in assay [15] it was 15.3 µM (inactive); in assay [16], 15.1 µM (inactive); in assay [17] it was 16.1 µM (inactive); in assay [18], 18.9 µM (inactive). The GI50 in [19] is 24.5 µM (inactive); in assay [20], 33.9 µM (inactive).
As for `CCCCCC(=O)CCCCCCCC(O)CC(=O)OCC` (configuration not stated), the GI50 in assay [1], in [3], in [4], in assay [5], in assay [7] and in assay [8] was > 100 µM (inactive) in each case. The GI50 in assay [9] is > 100 µM (inactive); in [10], > 100 µM (inactive); in assay [11], > 100 µM (inactive); in assay [12], > 100 µM (inactive); in assay [13], > 100 µM (inactive); in assay [14], 64.3 µM (inactive). The GI50 was 49.1 µM (inactive) in assay [15]; > 100 µM (inactive) in [16]; > 100 µM (inactive) in assay [17]; 37.8 µM (inactive) in assay [18]; > 100 µM (inactive) in assay [19]; > 100 µM (inactive) in assay [20].
On to `C[n+]1c2ccccc2n2c3ccccc3c(NCCc3ccccn3)c(C#N)c21`, for which the GI50 is 2.47 µM (inactive) in [1]; 3.4 µM (inactive) in assay [2]; 2 µM (inactive) in assay [3]; 1.64 µM (inactive) in assay [4]; 2.55 µM (inactive) in assay [5]; 4.06 µM (inactive) in assay [6]. The GI50 in assay [7] was 1.47 µM (inactive); in assay [8], 1.42 µM (inactive); in assay [9], 2.32 µM (inactive); in [10], 1.99 µM (inactive); in assay [11], 2.21 µM (inactive); in assay [12] it was 2.36 µM (inactive). Moreover, the GI50 was 2.9 µM (inactive) in assay [13]; 1.68 µM (inactive) in assay [14]; 5.97 µM (inactive) in [15]; 2.36 µM (inactive) in [16]; 1.17 µM (inactive) in assay [17]; 5.89 µM (inactive) in assay [18]. Also, the results for the GI50 in assay [19] and in [20] were 2.81 µM (inactive) and 0.249 µM (active), respectively.
Take `Cc1nc(-n2nc(-c3ccccc3)cc2-c2ccccc2)sc1C(/C=C\c1ccc([N+](=O)[O-])cc1)=N/NC(=S)NN`: the GI50 in [1] is 43.7 µM (inactive); in [2], > 85.7 µM (inactive); in [3] it was 38.7 µM (inactive); in assay [4], 22 µM (inactive); in assay [5], > 46.8 µM (inactive); in [6] it was > 56.6 µM (inactive). Moreover, the GI50 in assay [7] was > 100 µM (inactive); in [8] it was > 10 µM (inactive); in assay [9], 45.2 µM (inactive); in assay [10], 24.2 µM (inactive); in [11], > 56.6 µM (inactive); in assay [12], 24.9 µM (inactive). The GI50 is 27.7 µM (inactive) in assay [13]; > 74.3 µM (inactive) in assay [14]; > 100 µM (inactive) in assay [15]; 26.4 µM (inactive) in assay [16]; 26.1 µM (inactive) in assay [17]; 21.3 µM (inactive) in assay [18]. Also, the GI50 in [19] is > 58.6 µM (inactive); in [20], 15.4 µM (inactive).
Consider `O=C1c2ccccc2CC12Cc1ccccc1C2`, for which the GI50 in [1] was 44.9 µM (inactive); in [2] it was > 100 µM (inactive); in assay [3] it was > 100 µM (inactive); in assay [4], 56.4 µM (inactive); in assay [5] it was > 100 µM (inactive); in assay [6], 20.7 µM (inactive). Moreover, the GI50 is 55 µM (inactive) in assay [7]; 66.7 µM (inactive) in assay [8]; > 100 µM (inactive) in assay [9]; > 100 µM (inactive) in [10]; 34.8 µM (inactive) in [11]; 36.2 µM (inactive) in [12]. Also, the GI50 in assay [13] is 16.7 µM (inactive); in assay [14], 60.7 µM (inactive); in assay [15], 31.4 µM (inactive); in assay [16], 48 µM (inactive); in assay [17], 35.8 µM (inactive); in assay [18], 83.2 µM (inactive). The GI50 in assay [19] is 70 µM (inactive); in [20] it was 53.5 µM (inactive).
In the case of `O=C1C=C(N2CCN(c3ncccn3)CC2)C(=O)c2c(O)ccc(O)c21`, the GI50 was > 100 µM (inactive) in assay [1]; > 100 µM (inactive) in assay [2]; > 100 µM (inactive) in assay [3]; 14.5 µM (inactive) in assay [4]; > 100 µM (inactive) in [5]; > 100 µM (inactive) in [6]. The GI50 was 7.21 µM (inactive) in assay [7]; > 100 µM (inactive) in [8]; > 100 µM (inactive) in [9]; 21.6 µM (inactive) in assay [10]; > 100 µM (inactive) in [11]; > 100 µM (inactive) in [12]. In addition, the GI50 in [13] is 21.5 µM (inactive); in assay [14] it was > 100 µM (inactive); in [15], > 100 µM (inactive); in [16], > 100 µM (inactive); in [17] it was > 100 µM (inactive); in assay [18], > 100 µM (inactive). Besides, the values for the GI50 in assay [19] and in [20] were 6.35 µM (inactive) and > 100 µM (inactive), respectively.
As for `CN/N=C(\C)C(CN(C)C)C(c1ccccc1)c1c(O)c2ccccc2oc1=O` (configuration not stated), the GI50 in assay [1], in assay [3], in assay [4], in assay [5], in assay [6] and in assay [7] was > 100 µM (inactive) in each case. In addition, the GI50 in assay [8] is > 100 µM (inactive); in assay [9], > 100 µM (inactive); in [10], > 100 µM (inactive); in [11], > 100 µM (inactive); in assay [12], 18.7 µM (inactive); in assay [13] it was > 100 µM (inactive). The GI50 in assay [14] is > 100 µM (inactive); in assay [15] it was 0.0574 µM (active); in assay [16] it was > 100 µM (inactive); in assay [17], > 100 µM (inactive); in assay [18], 24.3 µM (inactive); in [19], 78.9 µM (inactive). Also, the GI50 in assay [20] is > 100 µM (inactive).
For `COC1=C(C)C(=O)C2=C(C1=O)C1C3CC4=C(C(=O)C(OC)=C(C)C4=O)C(CNC(=O)C(C)O)N3C(C#N)C(C2)N1C` (configuration not stated), the GI50 was 0.0119 µM (active) in [1]; 0.0673 µM (active) in assay [2]; 0.0269 µM (active) in [3]; < 0.01 µM (active) in [4]; 0.0212 µM (active) in [5]; 0.0199 µM (active) in assay [6]. For the same compound, the GI50 in assay [7], in [8], in assay [9], in [10], in assay [11] and in [12] was < 0.01 µM (active) throughout. For the same compound, the GI50 in assay [13], in assay [14], in [15], in assay [16], in assay [17] and in [18] was < 0.01 µM (active) throughout. In addition, the GI50 in [19] and in assay [20] was < 0.01 µM (active) each time.
For `COC(=O)C1=C(O)C(C(=O)OC)[C@@]2(O)[C@@H](C(=O)OC)C(c3ccc(OC(=O)/C(=C/c4ccc(Cl)cc4)c4ccc(Cl)cc4)cc3)C[C@@H]1[C@@H]2C(=O)OC` (some centres not stated), the GI50 is 37.8 µM (inactive) in [1]; > 100 µM (inactive) in assay [2]; 30.1 µM (inactive) in assay [3]; 17.5 µM (inactive) in [4]; 19.5 µM (inactive) in assay [5]; 33.8 µM (inactive) in [6]. Moreover, the GI50 is 23.5 µM (inactive) in assay [7]; 19.1 µM (inactive) in assay [8]; > 100 µM (inactive) in assay [9]; 12.2 µM (inactive) in assay [10]; 22.3 µM (inactive) in assay [11]; 18.7 µM (inactive) in [12]. The GI50 was 26.1 µM (inactive) in assay [13]; 24.4 µM (inactive) in assay [14]; 19.5 µM (inactive) in assay [15]; 99.3 µM (inactive) in [16]; 14.3 µM (inactive) in assay [17]; 95.7 µM (inactive) in assay [18]. In addition, the GI50 is 55.7 µM (inactive) in assay [19] and 20.6 µM (inactive) in assay [20].
